From patent US8318741B2, “Therapeutic compositions and methods” (The Texas A & M University System, priority 2005, dated 2012)
Like-named read-outs stand apart in the source and are kept apart here. Marks after values point to notes of the source that are not given here. Blank lines part the entries; values can stand above or below the compound they belong to.

What was measured:
[1] = tested on: trabeculectomy failure caused by inflammation; design: species or system Dutch Belted rabbits; details: rabbit, in vivo
[2] = tested on: carrageenin induced inflammation; assay: Carrageenin-induced inflammation (paw edema); format: in vivo, Sprague Dowley rats
Procedure: Forty female Sprague Dowley rats weighing 164±16 g were used for the experiments. The test and control groups were assigned randomly. Carrageenin (0.1 mL of 1% solution) was injected into the plantar surface of the rat hind paw to induce inflammation. Ten minutes before carrageenin injection, 8 mL of water administered ig. […] The changes in volume of the inflamed edematous foot were measured by the volume of water displaced and recorded at 0, 0.5, 1, 2, 4, and 6 h after the carrageenin injection.

mice = assay: LD50 determination / acute oral toxicity; format: in vivo
Procedure: LD50 determination: For each dose, 20 mice of either sex, weighing 18-20 g were used to determined the LD50 according to the method of Litchfield & Wilcoxon, J. Pharmacol. Exp. Ther. 96:99-113 (1949). Animals were housed in an animal room at 25° C. and 70% relative humidity. The light cycle was set for 12 h light and 12 h darkness.

[3] = tested on: choroidal neovascularization in rat eyes
guinea pigs = details: known before the Draize test; cited from earlier work
[4] = tested on: ocular hypertensive rabbit eyes; assay: Choroidal blood flow in ocular hypertensive rabbit eyes (colored microspheres); format: in vivo, New Zealand white rabbits; details: for Choroidal Blood Flow, 30 min / Choroidal Blood Flow, 60 min / Choroidal Blood Flow, 120 min / Choroidal Blood Flow, 180 min / Time after administration over which the action on choroidal blood flow lasted: 50 μl, 1% topically; for Choroidal Blood Flow, 30 min / Choroidal Blood Flow, 60 min / Choroidal Blood Flow, 120 min / Choroidal Blood Flow, 180 min: vehicle controls at 100%, mean ± SD, N = 6
rat eyes = assay: Retinal function recovery after ischemic insult in rat eyes (ERG b-wave); details: 10 mg/kg ip; for Retinal Function Recovery After Ischemic Insult, Treated: Mean ± SD, N = 6; for Retinal Function Recovery, Net increase (%): treated versus control
IL-1 induced uveitis = assay: Interleukin-1 induced uveitis; format: in vivo, Sprague-Dawley rats; details: 20 mg/kg t.i.d.
[5] = at various dose levels, AMD rat model
[6] = N-nitro-azoles and C-nitropyrazoles, 30 min
[7] = N-nitro-azoles and C-nitropyrazoles
[8] = N-Nitropyrazoles and C-Nitropyrazoles, b-wave recovery after 30 min ischemia
[9] = N-Nitropyrazoles and C-Nitropyrazoles
[10] = Flavonoids, 30 min after administration

Structure (SMILES): CC1(Br)CSC(=Nc2ccccc2)N(c2ccccc2)C1=O (stereo not shown) [CK-17, 5-bromo-5-methyl-3-phenyl-2-phenylimino-1,3-thiazinan-4-one]
- Delay of trabeculectomy failure [1]: prolonged the appearance of trabeculectomy failure
- Delay of trabeculectomy failure relative to prednisolone [1]: more effective than prednisolone
- Potency relative to aspirin ([2]; carrageenin induced inflammation): about 10 times
- Inhibition of carrageenin induced inflammation ([2]; ip 3 times before carrageenin): very effective in inhibiting carrageenin induced inflammation
- Toxic response (mice; 20 g/kg given orally, observed at least 7 days): did not cause any toxic response
- LD50 equivalent for man (mice; orally, extrapolated to man): ≥ 1,400 g/70 kg
- Effective dose to inhibit CNV formation ([3]; rat, in vivo, ip): 30 mg/kg
- Skin irritation (guinea pigs): did not produce skin irritation

Structure (SMILES): CC(C)(C)NC[C@@H](O)COc1nsnc1N1CCOCC1 [D-Timolol, (2R)-1-[(4-morpholin-4-yl-1,2,5-thiadiazol-3-yl)oxy]-3-(tert-butylamino)propan-2-ol]
- Inhibition of CNV formation ([3]; 15 mg/kg i.p. once a day for 4 weeks): effective in inhibiting some CNV formation but not as potent as hydralazine or guanabenz
- Inhibition of CNV formation [3, 5]: potent inhibition of CNV formation

Structure (SMILES): CONC(=O)c1ccn([N+](=O)[O-])n1 [DN-6, N-methoxy-1-nitro-1H-pyrazole-3-carboxamide]
- Choroidal Blood Flow, 30 min [4, 6]: 56.9 ± 17.5^e %
- Choroidal Blood Flow, 60 min [4, 7]: 61.8 ± 20.9 %
- Choroidal Blood Flow, 120 min [4, 7]: 88.3 ± 34.1 %
- Choroidal Blood Flow, 180 min [4, 7]: 128.5 ± 60.0 %
- Retinal Function Recovery After Ischemic Insult, Treated (rat eyes; [8]): 64.0 ± 24.9 %
- Retinal Function Recovery, Net increase (%) (rat eyes; [9]): 94.5%

Structure (SMILES): O=C(O)c1ccn([N+](=O)[O-])n1 [DN-7, 1-nitro-1H-pyrazole-3-carboxylic acid]
- Choroidal Blood Flow, 30 min [4, 6]: 42.0 ± 13.7%
- Choroidal Blood Flow, 60 min [4, 7]: 57.2 ± 3.7 %
- Choroidal Blood Flow, 120 min [4, 7]: 80.5 ± 23.1 %
- Choroidal Blood Flow, 180 min [4, 7]: 87.3 ± 29.6 %
- Retinal Function Recovery After Ischemic Insult, Treated (rat eyes; [8]): 71.4 ± 20.2 %
- Retinal Function Recovery, Net increase (%) (rat eyes; [9]): 117.0%

Structure (SMILES): NC(N)=NN=Cc1c(Cl)cccc1Cl [Guanabenz, 2-[(2,6-dichlorophenyl)methylideneamino]guanidine]
- Inhibition of CNV formation ([3]; 20 mg/kg i.p. once a day for 4 weeks, eight laser lesions): All eight CNV formations were inhibited
- Inhibition of CNV formation ([3]; 20 mg/kg i.p. once a day for 4 weeks, eight laser lesions, listed as guanabenz): inhibition of CNV formation
- Inhibition of CNV formation [3, 5]: potent inhibition of CNV formation

Structure (SMILES): NNc1nncc2ccccc12 [Hydralazine, phthalazin-1-ylhydrazine]
- Inhibition of CNV formation ([3]; 5 mg/kg i.p. once a day for 4 weeks, eight laser lesions): four out of eight
- Inhibition of CNV formation ([3]; 10 mg/kg i.p., eight laser lesions): inhibited all CNV formation effectively
- Inhibition of CNV formation ([3]; 10 mg/kg i.p., eight laser lesions, listed as hydralazine): inhibition of CNV formation
- Inhibition of CNV formation [3, 5]: potent inhibition of CNV formation

- Retinal Function Recovery After Ischemic Insult, Treated (rat eyes; Flavonoids, b-wave recovery relative to original level after 30 min ischemia): 54.0 ± 17.8 %
- Retinal Function Recovery, Net increase (%) (rat eyes; Flavonoids): 66.1%
Structure (SMILES): O=C1CC(c2ccc(O)cc2)Oc2cc(O)cc(O)c21 (stereo not shown) [Naringenin, 5,7-dihydroxy-2-(4-hydroxyphenyl)chroman-4-one]
- Time after administration over which the action on choroidal blood flow lasted [4]: at least 2 hrs
- Choroidal Blood Flow, 30 min [4, 10]: 102.5 ± 22.0^e* %
- Choroidal Blood Flow, 60 min ([4]; Flavonoids): 226.1 ± 55.0 %
- Choroidal Blood Flow, 120 min ([4]; Flavonoids): 124.2 ± 74.5 %
- Choroidal Blood Flow, 180 min ([4]; Flavonoids): 137.4 ± 712%
- Onset / latent period of the increase of choroidal blood flow ([4]; after drug administration): 30 min
- Time of peak effect on choroidal blood flow ([4]; after drug administration): 60 min
- Increase of choroidal blood flow at the peak, of the original blood flow ([4]; at the peak (60 min after drug administration)): more than 200%
- Inhibition of CNV formation ([3]; 30 mg/kg i.p., eight laser lesions): marked inhibition of CNV formation
- Inhibition of CNV formation [3, 5]: potent inhibition of CNV formation

- Retinal Function Recovery After Ischemic Insult, Treated (rat eyes; Flavonoids, b-wave recovery relative to original level after 30 min ischemia, 10 mg/kg): 90.0 ± 17.2 %
- Retinal Function Recovery After Ischemic Insult, Treated (rat eyes; Flavonoids, b-wave recovery relative to original level after 30 min ischemia, listed as puerarin, 10 mg/kg): 90%
- Retinal Function Recovery, Net increase (%) (rat eyes; Flavonoids): 190.3%
Structure (SMILES): O=c1c(-c2ccc(O)cc2)coc2c([C@@H]3O[C@H](CO)[C@@H](O)[C@H](O)[C@H]3O)c(O)ccc12 [Puerarin]
- Time after administration over which the action on choroidal blood flow lasted [4]: > 3 h
- Choroidal Blood Flow, 30 min [4, 10]: 30.9 ± 7.7%
- Choroidal Blood Flow, 60 min ([4]; Flavonoids): 114.9 ± 21.5 %
- Choroidal Blood Flow, 120 min ([4]; Flavonoids): 160.8 ± 70.7 %
- Choroidal Blood Flow, 180 min ([4]; Flavonoids): 127.4 ± 65.5 %
- Start of action on choroidal blood flow ([4]; after administration): 1 h

Structure (SMILES): C[C@]12C=CC(=O)C=C1CC[C@@H]1[C@@H]2[C@@H](O)C[C@@]2(C)[C@H]1CC[C@]2(O)C(=O)CO [prednisolone]
- Blockade of IL-1 induced uveitis (IL-1 induced uveitis): blocked effectively
- Minimal dose required to produce inhibition of CNV formation ([3]; i.p.): 3 mg/kg
